In data set [1] the test system is IL-6 production in PMA-differentiated THP1 macrophages. Kind of data set: IL-6 production in LPS treated PMA-differentiated THP1 macrophages (ELISA). Format: cell-based, human. As to conditions: 1.23, 3.7, 11.11, 33.33 and 100 μg/mL, then LPS 48 h. How it is done: (§1) Methods: […] THP1 monocytes were differentiated to macrophages using phorbol 12-myristate 13-acetate (PMA, Sigma, P1585). The […] The culture supernatant was collected from each well and replaced with 100 μl of fresh 1% FBS medium. […] 50 μl of cultured supernatant was used for measuring TNF-α and IL6 concentration. TNF-α was measured using human TNF-α DuoSet ELISA kit (R&D systems, DY210-05) and IL6 was determined using human IL6 DuoSet ELISA kit (R&D systems, DY206-05) according to the manufacturer's instructions. […] THP1 monocytes were differentiated to macrophages as previously described. […] Untreated cells were used as the control. After incubation, cell cultures were then stimulated with LPS for an additional 48 h (total volume of 200 μL per well). The culture supernatant was collected from each well and replaced with 100 μL of fresh 1% FBS medium. […] 50 μl of cultured supernatant was used for measuring TNF-α and IL6 concentration. TNF-α was measured using human TNF-α DuoSet ELISA kit and IL6 was determined using human IL6 DuoSet ELISA kit according to the manufacturer's instructions.

The subject of data set [2] is TNF-α production in PMA-differentiated THP1 macrophages. Briefly: TNF-α production in LPS treated PMA-differentiated THP1 macrophages (ELISA). Format: cell-based, human. The conditions noted are these: 1.23, 3.7, 11.11, 33.33 and 100 μg/mL, then LPS 48 h. How it is done:
as §1
(In general: An ELISA detects its analyte on a solid surface through an enzyme-linked reagent.)

The test system of data set [3] is nitric oxide (NO) production in PMA-differentiated THP1 macrophages. Briefly: Nitric oxide (NO) production in LPS treated PMA-differentiated THP1 macrophages. Format: cell-based, human. The conditions noted are these: pre-treatment 2 h, then LPS 48 h. How it is done:
Methods: […] Total nitrite was measured using nitric oxide colorimetric assay kit (BioVision, […]-200) according to the manufacturer's instructions. […] Untreated cells were used as the control. After incubation, cell cultures were then stimulated with LPS for an additional 48 h (total volume of 200 μl per well). The culture supernatant was collected from each well and replaced with 100 μl of fresh 1% FBS medium. […] 42.5 μL of cultured supernatant was used for measuring nitrite concentration. Total nitrite was measured using nitric oxide colorimetric assay kit according to the manufacturer's instructions.

For another data set, the system named is Jurkat cells. It is filed as cell-based.
In a further data set the test system is THP1 cells. It is filed as cell-based.
For a further data set, the system named is MCF7 cells. Format: cell-based.

This is an account of results in US20240147927A1, “METHODS OF HIGH PRODUCTION OF POLYPHENOLS FROM RED LETTUCES AND USES THEREOF” (SignalChem Plantech Corporation, priority 2021, published 2024).

With `O=C(/C=C/c1ccc(O)c(O)c1)O[C@@H]1C[C@](O)(C(=O)O)C[C@@H](O)[C@H]1O` [Neochlorogenic acid, 3-O-caffeoylquinic acid], the “effect on secretion of IL-6” value in data set [1] is recorded as “minimal effects”. In addition, in data set [2], the “effect on secretion of TNF-α” value is recorded as “minimal effects”. In addition, the “NO, EC50” value in data set [3] is 80.5 µg/mL.

In the case of `O=C(/C=C/c1ccc(O)c(O)c1)O[C@H]1[C@H](O)C[C@](O)(C(=O)O)C[C@H]1O` [4-CQA, 4-O-caffeoylquinic acid], the “Jurkat, TC50” value with Jurkat cells was found to be 49.9 µg/mL. Also, the “cytotoxicity towards THP1 cell-line” value in the data set with THP1 cells is on record as “did not appear to be individually cytotoxic”. Besides, the “cytotoxicity towards MCF7 cell-line” value with MCF7 cells is “did not appear to be individually cytotoxic”. Besides, the “effect on secretion of IL-6” value in data set [1] is listed as “minimal effects”. For the same molecule, the “effect on secretion of TNF-α” value in data set [2] is “minimal effects”. Besides, in data set [3], the “NO, EC50” value was found to be 71.9 µg/mL.

`O=C(C=Cc1ccc(O)c(O)c1)O[C@@H](C(=O)O)[C@@H](OC(=O)C=Cc1ccc(O)c(O)c1)C(=O)O` [Chicoric acid, (2R,3R)-O-dicaffeoyltartaric acid]: in data set [1], the “effect on secretion of IL-6” value is “minimal effects”. In addition, the “effect on secretion of TNF-α” value in data set [2] was “minimal effects”. In addition, the “NO, EC50” value in data set [3] was 25.3 µg/mL.

For the molecule `OC[C@H]1O[C@@H](Oc2cc3c(O)cc(O)cc3[o+]c2-c2ccc(O)c(O)c2)[C@H](O)[C@@H](O)[C@H]1O` [Cyanidin 3-galactoside, cyanidin 3-galactoside], the “Jurkat, TC50” value in the data set with Jurkat cells amounted to 53.5 µg/mL. Also, the “cytotoxicity towards THP1 cell-line” value in the data set with THP1 cells is “did not appear to be individually cytotoxic”. In addition, the “cytotoxicity towards MCF7 cell-line” value in the data set with MCF7 cells was “did not appear to be individually cytotoxic”. Moreover, in data set [1], the “effect on secretion of IL-6” value is reported as “minimal effects”. Also, the “effect on secretion of TNF-α” value in data set [2] is listed as “minimal effects”. Also, the “NO, EC50” value in data set [3] amounted to 98.4 µg/mL.
